Experimental data published in paper PMC11005040, “Photoactivatable Ruthenium Complexes Containing Minimal Straining Benzothiazolyl-1,2,3-triazole Chelators for Cancer Treatment” (Inorganic Chemistry, 2024).
Where two headings read alike, the source gives them in different places.

How the values were obtained:
A2780 cells = assay: Dark cytotoxic screening, MTT test, 48 h; format: cell-based, human; details: 48 h in the dark
Procedure: (§1) For dark cytotoxic screening, A2780, CHO, HeLa, and A375 cells were cultured in 96-well plates at a density of 5 × 10^3 cells/well in complete medium and incubated for 24 h at 310 K and 5% CO2 in a humidified incubator. Serial dilutions of tested compounds in cell culture media were then added at final concentrations in the range of 0 to 100 μM in a final volume of 100 μL/well (%v/v DMSO below 0.4%) for 48 h prior to MTT test. For photoactivation studies, HeLa and A375 cells were used. Treatments were added at final concentrations in the range of 0 to 500 μM. After 1 h incubation with the compounds, light irradiation treatments were applied using a LED photoreactor (Luzchem; Canada) fitted with LED lamps centered at 465 nm (final intensity 4 mW/cm^2) for 1 h. Dark control analogues were directly kept in the dark for 2 h. After incubation periods, cells were washed with saline PBS buffer and loaded with 50 μL of MTT solution (1 mg/mL) for additional 4 h, then removed and 50 μL DMSO was added to solubilize the purple formazan crystals formed in active cells. The absorbance was measured at 570 nm using a microplate reader (FLUOstar Omega) and the IC50 values were calculated based on the inhibitory rate curves using the next the equation [drawing 2] where I represents the percentage inhibition of viability observed, Imax is the maximal inhibitory effect, IC50 is the concentration that inhibits 50% of maximal growth, C is the concentration of the treatment, and n is the slope of the semilogarithmic dose–response sigmoidal curves. The nonlinear fitting was performed using SigmaPlot 14.0 software. Two independent experiments were performed with triplicate points per concentration level (n = 3).

HeLa cells [1] = assay: Dark cytotoxic screening, MTT test, 48 h; format: cell-based, human; details: 48 h in the dark
Procedure: as §1

CHO cells = assay: Dark cytotoxic screening, MTT test, 48 h; format: cell-based; details: 48 h in the dark
Procedure: as §1

HeLa cells [2] = system: HeLa cells; design: method as in doi:10.1016/j.dyepig.2022.110905; details: λexc 405 nm; cited from earlier work
A375 cells [3] = assay: Dark cytotoxic screening, MTT test, 48 h; format: cell-based, human; details: 48 h in the dark
Procedure: as §1

A375 cells [4] = assay: Photoactivation studies (phototoxicity, MTT), dark vs blue light; format: cell-based, human
Procedure: as §1

HeLa cells [5] = assay: as above; format: cell-based, human
Procedure: as §1

HeLa cells [6] = assay: Cell uptake by confocal microscopy; format: cell-based, human; details: 15 μM, 2 h incubation; for Cellular uptake: λexc 450 nm
Procedure: HeLa cells were seeded onto Ibidi μ-slides at 10^4 cells/cm^2 in a complete medium and incubated for 24 h at 310 K and 5% CO2 in a humidified incubator. Compounds were added at indicated concentrations for 2 h. […]

HeLa cells [7] = assay: Confocal microscopy imaging after blue light irradiation; format: cell-based, human; details: 15 μM
Procedure: HeLa cells were seeded onto Ibidi μ-slides at 10^4 cells/cm^2 in a complete medium and incubated for 24 h at 310 K and 5% CO2 in a humidified incubator. […] Cells were then washed with PBS twice and imaged under confocal microscopy (STELLARIS Leica Microsystems) using 405 nm excitation laser.

[8] = hypoxia (2% O2), 1 h incubation then blue light 465 nm, 4 mW/cm^2, 1 h, read-out: IC50 A375 blue light
[9] = hypoxia (2% O2), dark, read-out: IC50 A375 dark
[10] = normoxia (21% O2), 1 h incubation then blue light 465 nm, 4 mW/cm^2, 1 h, read-out: IC50 A375 blue light
[11] = normoxia (21% O2), dark 2 h, read-out: IC50 A375 dark
[12] = hypoxia (2% O2), 1 h incubation then blue light 465 nm, 4 mW/cm^2, 1 h, read-out: IC50 HeLa blue light
[13] = hypoxia (2% O2), dark, read-out: IC50 HeLa dark
[14] = normoxia (21% O2), 1 h incubation then blue light 465 nm, 4 mW/cm^2, 1 h, read-out: IC50 HeLa blue light
[15] = normoxia (21% O2), dark 2 h, read-out: IC50 HeLa dark

| Structure (SMILES) | IC50 (A2780 cells) [µM] | IC50 (HeLa cells [1]) [µM] | IC50 (CHO cells) [µM] | IC50 (A375 cells [3]) [µM] | P.I. A375 (IC50 dark/IC50 465 nm) (A375 cells [4]; hypoxia (2% O2)) | IC50 (A375 cells [4]; [8]) [µM] | IC50 (A375 cells [4]; [9]) [µM] | P.I. A375 (IC50 dark/IC50 465 nm) (A375 cells [4]; normoxia) | IC50 (A375 cells [4]; [10]) [µM] | IC50 (A375 cells [4]; [11]) [µM] | P.I. HeLa (IC50 dark/IC50 465 nm) (HeLa cells [5]; hypoxia (2% O2)) | IC50 (HeLa cells [5]; [12]) [µM] | IC50 (HeLa cells [5]; [13]) [µM] | P.I. HeLa (IC50 dark/IC50 465 nm) (HeLa cells [5]; normoxia) | IC50 (HeLa cells [5]; [14]) [µM] | IC50 (HeLa cells [5]; [15]) [µM] | Intracellular distribution (HeLa cells [6]) | Cellular uptake (HeLa cells [6]) | other results |
| --- | --- | --- | --- | --- | --- | --- | --- | --- | --- | --- | --- | --- | --- | --- | --- | --- | --- | --- | --- |
| [NH2][Pt]([NH2])([Cl])[Cl] [CDDP, cisplatin, reference compound] | 1.9 ± 0.1 | 21 ± 2 | 7.8 ± 0.4 |  |  |  |  |  |  |  |  |  |  |  |  |  |  |  |  |
| CN(C)c1ccc(-n2cc(-c3nc4ccccc4s3)nn2)cc1 [L5] |  |  |  |  |  |  |  |  |  |  |  |  |  |  |  |  |  |  | Intracellular distribution (HeLa cells [2]): evenly distributed around cell cytoplasm but not within nuclei |
| Cc1ccc(-n2cc(-c3nc4ccccc4s3)nn2)cc1.O=S(=O)([O-])C(F)(F)F.O=S(=O)([O-])C(F)(F)F.[Ru+2].c1cnc2c(c1)ccc1cccnc12.c1cnc2c(c1)ccc1cccnc12 [Ru1, [Ru(phen)2(L1)][OTf]2] | > 100 | > 100 | > 100 | > 100 | >7.5 | 66.9 ± 6.1 | > 500 | >24.4 | 20.6 ± 1.5 | > 500 | >7.1 | 70.2 ± 5 | > 500 | >10.4 | 48 ± 3.4 | > 500 |  |  |  |
| FC(F)(F)c1ccc(-n2cc(-c3nc4ccccc4s3)nn2)cc1.O=S(=O)([O-])C(F)(F)F.O=S(=O)([O-])C(F)(F)F.[Ru+2].c1cnc2c(c1)ccc1cccnc12.c1cnc2c(c1)ccc1cccnc12 [Ru3, [Ru(phen)2(L3)][OTf]2] | > 100 | > 100 | > 100 | > 100 |  | > 100 | > 500 | >6.8 | 73.5 ± 4.3 | > 500 | >5.9 | 85.2 ± 4.4 | > 500 | >6.8 | 73.5 ± 4.2 | > 500 |  |  |  |
| O=S(=O)([O-])C(F)(F)F.O=S(=O)([O-])C(F)(F)F.O=[N+]([O-])c1ccc(-n2cc(-c3nc4ccccc4s3)nn2)cc1.[Ru+2].c1cnc2c(c1)ccc1cccnc12.c1cnc2c(c1)ccc1cccnc12 [Ru4, [Ru(phen)2(L4)][OTf]2] | > 100 | > 100 | > 100 | > 100 | >9.6 | 51.9 ± 2.4 | > 500 | >26.6 | 18.8 ± 3.7 | > 500 | >12.0 | 41.7 ± 2.7 | > 500 | >14.8 | 33.8 ± 5.5 | > 500 | across the cytoplasm in punctate deposits | excellent and rapid cellular uptake |  |
| CN(C)c1ccc(-n2cc(-c3nc4ccccc4s3)nn2)cc1.O=S(=O)([O-])C(F)(F)F.O=S(=O)([O-])C(F)(F)F.[Ru+2].c1cnc2c(c1)ccc1cccnc12.c1cnc2c(c1)ccc1cccnc12 [Ru5, [Ru(phen)2(L5)][OTf]2] | > 100 | > 100 | > 100 | > 100 |  | > 100 | > 500 | >18.5 | 27.1 ± 6.2 | > 500 | >8.7 | 57.2 ± 6.4 | > 500 | >12.0 | 41.8 ± 3.9 | > 500 | across the cytoplasm in punctate deposits | excellent and rapid cellular uptake | Cell cytotoxicity by imaging, 1 min irradiation (HeLa cells [7]; 1 h, then blue light 1 min): no cell cytotoxicity was observed; Cell cytotoxicity by imaging, 1 h irradiation (HeLa cells [7]; then blue light 1 h): discernible cell damage is evident |
